Measurements: ChEMBL document CHEMBL1151698, “Inhibition of aldose reductase from cataracted eye lenses by finger millet (Eleusine coracana) polyphenols” (Bioorg Med Chem, 2008)
In brackets after ≈: the same amount, converted by molar mass.

Columns and labels:
[1] = target: Aldo-keto reductase family 1 member B1 (Homo sapiens, UniProt P15121); experiment: Inhibition of cataracted human eye lens aldose reductase
[2] = system: Radical scavenging activity; experiment: Antioxidant activity assessed as DPPH radical scavenging activity after 20 mins; format: functional

Structure (SMILES)	IC50 [1]	IC50 [2]
O=C(O)/C=C/c1ccccc1 [CINNAMIC ACID]	460 µM	96.7 µg/mL (≈ 653 µM)
O=C(O)/C=C/c1ccc(O)cc1 [COUMARIC ACID]	989 µM	112.01 µg/mL (≈ 682 µM)
COc1cc(/C=C/C(=O)O)ccc1O [FERULATE]		189.1 µg/mL (≈ 974 µM)
O=C(O)c1cc(O)c(O)c(O)c1 [GALLIC ACID]	572 µM	26.9 µg/mL (≈ 158 µM)
O=C(O)c1ccc(O)cc1 [PARABEN]		183.7 µg/mL (≈ 1330 µM)
O=C(O)c1ccc(O)c(O)c1 [PROTOCATECHUIC ACID]	277 µM	77.63 µg/mL (≈ 504 µM)
O=c1c(O)c(-c2ccc(O)c(O)c2)oc2cc(O)cc(O)c12 [QUERCETIN]		56.8 µg/mL (≈ 188 µM)
COc1cc(C(=O)O)cc(OC)c1O [SYRINGIC ACID]	868 µM	155.6 µg/mL (≈ 785 µM)
COc1cc(C(=O)O)ccc1O [VANILLIC ACID]		176.5 µg/mL (≈ 1050 µM)
